Here are results for 4 compounds from paper PMC8143347, “Metabolism and Interspecies Variation of IMMH-010, a Programmed Cell Death Ligand 1 Inhibitor Prodrug” (Pharmaceutics, 2021).

Data set [1] in a line: Body weight in B16F10 model. As to conditions: B16F10, CTX 80 mg/kg weekly. The method, then:
(§1) The antitumor activity of IMMH-010 was evaluated by B16F10 melanoma and MC38 colon carcinoma xenograft models. The B16F10 and MC38 cells were resuspended in saline (1.5 × 10^6 cells/0.2 mL saline) and injected subcutaneously into the right flanks of each mouse on day 0. The treated mice received once-daily oral administration of IMMH-010 maleate (1.25, 2.5, 5, and 10 mg/kg, n = 10) by oral gavage (PO) for 19 consecutive days, whereas the control mice received vehicle (0.5% carboxymethyl cellulose, n = 10). The mice in the positive control group received the anti-mouse PD-L1 antibody (696618M2, Bio X Cell, West Lebanon, NH, USA) at 10 mg/kg intraperitoneally every 3 days (n = 10). The first-line antineoplastic drug cyclophosphamide (CTX) was administered at doses of 80 and 40 mg/kg weekly in the B16F10 and MC38 models (n = 10), respectively. After the last treatment, on day 19, the mice were sacrificed, and the tumor and spleen were stripped and weighed. The tumor growth inhibition (TGI) was calculated as TGI = (1 − treatment group tumor weight/vehicle group tumor weight) × 100.

Data set [2] can be described thus: Body weight in MC38 model. As to conditions: MC38, CTX 40 mg/kg weekly. As to the method:
as §1

The next data set deals with B16F10 melanoma. The experiment in a line: Antitumor activity in B16F10 melanoma xenograft model. The conditions noted are these: B16F10, CTX 80 mg/kg weekly, day 19. It counts as in vivo, mouse. The method, then:
as §1

For another data set, the system named is MC38 colon carcinoma. The data set is described as follows: Antitumor activity in MC38 colon carcinoma xenograft model. It counts as in vivo, mouse. The conditions noted are these: MC38, CTX 40 mg/kg weekly, day 19. The method, then:
as §1

Data set [3] can be described thus: Metabolism in human liver microsomes. It counts as in vitro ADME. As to conditions: NADPH-dependent. As to the method:
(§2) To compare the differences in IMMH-010 metabolism between the liver and intestine, IMMH-010 (10 μM) was incubated with rat liver and intestinal S9 homogenate protein (1 mg protein/mL) and with human liver and intestinal microsomes (0.2 mg protein/mL) in a final volume of 0.2 mL Tris-HCl buffer (50 mM, pH 7.4) containing 5 mM MgCl2. The incubations were performed in duplicate in the presence and absence of an NADPH regenerating system. After 2 min preincubation at 37 °C, reactions were initiated by the addition of IMMH-010 (10 μM). Incubations were terminated by acetonitrile at 0, 10, and 20 min. IMMH-010, YPD-29B, M2, and M3 were quantified by LC-MS/MS assay. Midazolam (10 μM, a substrate of CYP3A4) was set as the positive control.
Background: Microsomes from liver hold many membrane-bound enzymes, among them those of drug oxidation.

A short description of data set [4]: Identification of IMMH-010 metabolites in rat urine, bile and feces. The conditions noted are these: after oral IMMH-010 maleate 5 mg/kg. It counts as in vivo. As to the method: After oral administration of IMMH-010 maleate (5 mg/kg), two rats were housed in metabolic cages to collect urine and feces samples for 24 h. Feces samples were homogenized with methanol at 1:10 (w/v) and urine samples were diluted 10-fold in methanol. Additionally, two rats were bile duct cannulated under isoflurane anesthesia. After oral administration of IMMH-010 maleate (5 mg/kg), bile samples were collected over 0–2 h after dosing.
LC-MS was performed using a Thermo Scientific Q Exactive HF hybrid quadrupole-Orbitrap mass spectrometer. Reverse-phase liquid chromatography was performed on a Zorbax C18 column (100 × 2.1 mm, 3.5 μm). Mobile phase A was 0.1% aqueous formic acid and mobile phase B was 0.1% formic acid in methanol. The mobile phase was delivered with the following gradient elution profile: 0 min, 10% B; 15 min, 40% B; 17–19 min, 100% B; 20–23 min, 10% B. The total runtime for each injection was 23 min. The flow rate was 0.3 mL/min, and the column oven was maintained at 30 °C.
The analysis was performed in full mass spectrometry with data-dependent tandem mass spectrometry (MS/dd-MS^2) mode. For a full mass spectrometry scan, the selected scan range was from m/z 100 to 500, the resolution was 70,000, and the automatic gain control (AGC) target was set to 1.0 × 10^6 with a maximum injection time (IT) of 100 ms. For the dd-MS^2 scan, the fragmentation mass spectra were recorded at a mass resolving power of 17,500 fwhm with a quadrupole isolation window of 1.5 m/z for precursor ions. The AGC target was 2.0 × 10^5 and the maximum IT was 50 ms.
Xcalibur 4.1 software (Thermo Fisher Scientific, San Jose, CA, USA) was used for instrument control and data processing. Compound Discover 2.0 software was used for metabolite identification.

The test system of data set [5] is cDNA-expressed human CYPs and FMOs. The experiment in a line: IMMH-010 metabolism by cDNA-expressed human CYPs and FMOs. The class given is in vitro ADME. The conditions noted are these: IMMH-010 10 µM, 50 pmol enzyme, 30 min, NADPH. As to the method:
cDNA-expressed human CYPs were also used to investigate the enzymes mediating IMMH-010 metabolism. IMMH-010 (10 µM) was incubated individually with 50 pmol of 10 individual cDNA-expressed human CYPs (CYP1A1, CYP1A2, CYP2A6, CYP2B6, CYP2C9, CYP2C19, CYP2D6, CYP2E1, CYP2J2, or CYP3A4) and three cDNA-expressed human FMO enzymes (FMO1, FMO3, and FMO5) at 37 °C for 30 min. An NADPH regeneration system was added to initiate the reactions. Probe substrates of the CYPs were used as the positive controls. Incubations without NADPH served as the negative controls. All reactions were carried out in a final volume of 0.2 mL Tris-HCl buffer (50 mM, pH 7.4) containing 5 mM MgCl2 and conducted in triplicate. All incubations were terminated by 2 volumes of acetonitrile. After centrifugation at 14,000 rpm for 5 min, the samples were analyzed by LC-MS/MS.

Data set [6] in a line: Metabolism in human intestinal microsomes. The conditions noted are these: NADPH-dependent. The class given is in vitro ADME. The method, then: as §2
A short description of data set [7]: Metabolism in human liver S9 fractions. The conditions noted are these: human, monkey, dog and rat liver S9 incubations of IMMH-010 10 μM. It counts as in vitro ADME. As to the method:
IMMH-010 metabolism was compared in human, monkey, dog, and rat liver S9 homogenates. IMMH-010 (10 μM) was incubated with liver S9 homogenate protein (0.5 mg protein/mL) and a reduced nicotinamide adenine dinucleotide phosphate (NADPH) regenerating system in a final volume of 0.2 mL Tris-HCl buffer (50 mM, pH 7.4) containing 5 mM MgCl2. The reactions were performed in triplicate. After 2 min of preincubation at 37 °C, reactions were initiated by the addition of IMMH-010 (10 μM). The samples were collected 0, 5, 10, and 20 min after incubation, 2 volumes of acetonitrile were added to terminate the reaction. After vortexing and centrifugation, IMMH-010, YPD-29B, M3, and M4 in the supernatant were analyzed by LC-MS/MS.
(§3) All statistics were calculated using GraphPad Prism 8.0 software (San Diego, CA, USA) designed for one-way ANOVA. Pharmacokinetic parameters were calculated with a non-compartmental analysis using WinNonlin Version 6.3 (Pharsight, Mountain View, CA, USA). ADMET predictor V10.0 (Simulations Plus, Inc., Lancaster, CA, USA) and Microsoft Excel (Microsoft, Redmond, WA, USA) were used to process the data (i.e., half-life (t1/2) and hepatic clearance (CLhep) determination). Data were expressed as means ± standard deviations (SD). Results were considered statistically significant if the p-value <0.05, <0.01 and <0.001.

Data set [8] can be described thus: Plasma and tumor PK in B16F10 melanoma xenograft mice. The class given is in vivo, mouse. The method, then:
(§4) After the final dose, tumor and blood samples treated with IMMH-010 maleate (5 mg/kg) were collected over 72 h. Blood was exposed in an EP tube containing 500 mM NaF and 0.5% heparin sodium. Plasma samples were obtained by centrifugation, and tumor tissues were homogenized with 3 volumes (w/v) of saline on ice. The concentration of IMMH-010 and YPD-29B in plasma and tumor samples was quantitated by an LC-MS/MS method.
(§5) LC-MS/MS was performed using a triple quadrupole mass spectrometer (API 4000, AB Sciex, Framingham, MA, USA) with an ultra-performance liquid chromatography system (LC-30A, Shimadzu, Kyoto, Japan). Analyst 1.6.2 software (AB Sciex) was used for data acquisition and analysis. Mobile phase A was 1 mM ammonium acetate and mobile phase B was methanol. The mobile phase was delivered with the following gradient elution profile: 0–2.8 min, 70% B; 2.9 min, 85% B; 3 min, 90% B; 3.1–6.8 min, 100% B; 6.9–12 min, 70% B. The flow rate was 0.3 mL/min, and the column oven was maintained at 35 °C. The specific transitions monitored were 641.3 → 494.2 for IMMH-010, 597 → 155 for YPD-29B, 512 → 247 for M3, and 524 → 246 for M4.
as §3

Data set [9] is described as follows: Plasma and tumor PK in MC38 colon cancer xenograft mice. The class given is in vivo, mouse. As to the method: as §4, §5, §3
Data set [10] in a line: PK study in male cynomolgus monkeys. As to conditions: single oral IMMH-010 maleate 5 mg/kg. It counts as in vivo, cynomolgus monkey. The method, then:
IMMH-010 maleate was suspended with 0.5% carboxymethyl cellulose to make a 1 mg/mL suspension for PO gavage. Four male cynomolgus monkeys received a single oral dose of IMMH-010 maleate (5 mg/kg). Serial blood samples were collected upto 48 h. The plasma was separated and the plasma concentrations of IMMH-010 and YPD-29B were determined by LC-MS/MS.
as §5, §3

For the compound `O=P1(N(CCCl)CCCl)NCCCO1` (stereo not shown) [CTX, cyclophosphamide, reference compound], the “Body Weight (g) X ± SD Finish” value in data set [1] (finish day 19) is given as 19.2 ± 0.8 g; in [2] (finish day 19) it was 24.5 ± 0.9 g. Besides, the “Body Weight (g) X ± SD Start” value in data set [1] (start) turned out to be 16.94 ± 0.43 g; in [2] (start) it was 22.0 ± 0.8 g. The “Tumor Weight (g) X ± SD” value came to 0.23 ± 0.18 g in the data set with B16F10 melanoma and 0.17 ± 0.10 g in the data set with MC38 colon carcinoma. The “Tumor Weight TGI (%)” value with B16F10 melanoma and with MC38 colon carcinoma was 90% throughout.

For the compound `O=Cc1cc(Cl)c(OCc2cccc(-c3ccccc3)c2Br)cc1OCc1cccnc1` [M2], the “transformation ratio of IMMH-010 to this metabolite” value in data set [3] and in [6] was less than 2% throughout. Besides, the “metabolite in rat feces and bile” value in data set [4] is on record as “detected”. Also, the “enzyme with the highest metabolic activity for formation of the metabolite” value in [5] is “CYP2D6”.

For the compound `O=C(O)c1cc(Cl)c(OCc2cccc(-c3ccccc3)c2Br)cc1OCc1cccnc1` [M4], in data set [4], the “metabolite in rat feces and bile” value is listed as “detected”. Besides, in data set [7], the “amount of minor metabolite formed” value is reported as less than 3%. Moreover, the “formation of the metabolite in CYP and FMO incubations” value in data set [5] is “not detected”.

As to `O=C(O)[C@H](CO)NCc1cc(Cl)c(OCc2cccc(-c3ccccc3)c2Br)cc1OCc1cccnc1` [YPD-29B], the “area under the plasma concentration versus time curve (AUC)” value in [8] (B16F10 mice, IMMH-010 maleate 5 mg/kg PO) was roughly 69.9 ng·h/mL; in [9] (IMMH-010 maleate 5 mg/kg PO), roughly 69.9 ng·h/mL. Moreover, the half-life in data set [8] (C57BL/6, mouse, plasma, B16F10 mice, IMMH-010 maleate 5 mg/kg PO, read-out: elimination half-life (t1/2β) in plasma (converted)) was 1.61 h; in data set [8] (C57BL/6, mouse, tumor, B16F10 mice, IMMH-010 maleate 5 mg/kg PO, read-out: t1/2β in tumor (converted)), 12.4 h; in [9] (C57BL/6, mouse, plasma, IMMH-010 maleate 5 mg/kg PO, read-out: elimination half-life (t1/2β) in plasma (converted)) it was 1.76 h; in data set [9] (C57BL/6, mouse, tumor, IMMH-010 maleate 5 mg/kg PO, read-out: t1/2β in tumor (converted)), 45 h; in data set [10] (cynomolgus monkey, plasma, read-out: mean t1/2β in plasma (converted)) it was 9 h. For the same compound, the Tmax is 0.25 h in data set [8] (C57BL/6, mouse, plasma, B16F10 mice, IMMH-010 maleate 5 mg/kg PO, read-out: mean time of peak plasma concentration (converted)); 0.25 to 1 h in data set [8] (C57BL/6, mouse, tumor, B16F10 mice, IMMH-010 maleate 5 mg/kg PO, read-out: time of maximum concentration in the tumor); 0.25 h in data set [9] (C57BL/6, mouse, plasma, IMMH-010 maleate 5 mg/kg PO, read-out: mean time of peak plasma concentration (converted)); 0.25 to 1 h in data set [9] (C57BL/6, mouse, tumor, IMMH-010 maleate 5 mg/kg PO, read-out: time of maximum concentration in the tumor); no more than 1.5 h in data set [10] (cynomolgus monkey, plasma, read-out: observed time to peak concentration). Besides, the Cmax amounted to 42.6 ng/mL in data set [8] (C57BL/6, mouse, plasma, B16F10 mice, after last oral dose of IMMH-010 maleate 5 mg/kg for 19 days, read-out: mean peak concentration (Cmax) in plasma); 64.4 ng/mL in data set [9] (C57BL/6, mouse, plasma, after last oral dose of IMMH-010 maleate 5 mg/kg for 19 days, read-out: mean peak concentration (Cmax) in plasma); 35.5 ng/mL in data set [10] (cynomolgus monkey, plasma). The Kp in data set [8] (C57BL/6, mouse, tumor and plasma, B16F10 mice, IMMH-010 maleate 5 mg/kg PO, read-out: tissue/plasma ratio (AUCtumor/AUCplasma)) amounted to 2.1; in data set [9] (C57BL/6, mouse, tumor and plasma, IMMH-010 maleate 5 mg/kg PO, read-out: tissue/plasma ratio (AUCtumor/AUCplasma)), 2.4. In addition, the “t1/2β in tumors relative to plasma” value in data set [8] (range over B16F10 and MC38 xenograft mice) is recorded as 7.6–25 times. Further, the “metabolite in rat feces and bile” value in [4] was “detected”. The “metabolite in rat urine” value in data set [4] (24 h urine) was “found”. In addition, the AUC (usually the area under the concentration-time curve, a measure of exposure) in data set [10] (cynomolgus monkey, plasma) was determined as 186 ng·h/mL. Besides, the “molar AUC ratio of YPD-29B to IMMH-010” value in data set [10] is 4.17.
